From patent US20160090351A1, “INHIBITORS OF DEUBIQUITINATING PROTEASES” (BRANDEIS UNIVERSITY, priority 2013, published 2016)

Legend:
DUBs = assay: decomposition of high molecular weight ubiquitinated proteins (HMW-Ub) in lysates of HEK 293T cells expressing HA-Ub; type: biochemical, human; conditions: for DUB inhibitory activity, SAR in words: relative to C4 or parent analog
Experimental: FIG. 30 depicts data showing that diphenylcarbonates inhibit the decomposition of high molecular weight ubiquitinated proteins (HMW-Ub). Lysates were prepared from HEK 293T cells expressing HA-ubiquitin. Samples were incubated at 37° C. and reactions were quenched by the addition of reducing Laemmli buffer. HMW-Ub was assessed by SDS-PAGE and immunoblotting with anti-HA antibody. A. Representative immunoblots measuring the decomposition of HMW-Ub in lysates treated with either the DMSO vehicle, G5 (10 μM) or C4 (500 μM). B. Plot of the decomposition of HMW-Ub in lysates treated with DMSO and C4 (500 μM) (N=2; error bars denote range). C. Inhibition of HMW-Ub decomposition by diphenylcarbonates. Lysates were treated with diphenylcarbonates (50 μM). “-” denotes no treatment; D, 1% DMSO vehicle; IU1, an USP14-specific inhibitor; Bort, bortezomib, a proteasome inhibitor. D. Representative decomposition of HMW-Ub after 2 h incubation in the presence of varying concentrations of C4. See also FIG. 36. E. Quantitation of D. The values of EC50 reported in FIG. 29B are the average and S.E.M. of at least 3 independent experiments. See also FIG. 37 and FIG. 38.
Cells overexpressing HA-ubiquitin were prepared as above. Pellets were typically stored at −80° C. until required, at which time they were thawed on ice. Cell lysis was performed in lysis buffer using a Dounce homogenizer (10 strokes, with grinding, on ice: typical yield approx. 2-5 mg protein per transfected T75 flask for HEK 293T cells; 1-3 mg protein from a T75 flask for Cos-1). Crude lysate was centrifuged at 17000 g for 10 min at 4° C., after which time the concentration of the lysate was normalized to 1 mg/mL. The lysate was aliquoted into PCR strip tubes (typical volumes 75-50 μL) and compound in DMSO was added to this to give a final concentration of DMSO of 1%. Tubes were briefly centrifuged, overlaid with Chill-out wax (50 μL) and placed in a PCR machine at 37° C. with heated lid set to 37° C. Aliquots (9 μL) were removed at the stated times and immediately quenched in (2× final concentration) reducing (dithiothreitol) loading buffer and frozen (−19° C.) till required. Western blot analysis was carried out using standard methods. Samples were resolved by SDS-PAGE, transferred to PVDF [(0.45 μm) (Towbin buffer, tank apparatus, 90 V 1 hour, then overnight at 30 V, 4° C.)] then blocked in 15% milk in TBS-T HS (100 mM Tris HCl, pH 7.6, 500 mM NaCl, 0.5% […]) for at least 2 hours at RT. Afterward, membrane was washed in TBS-T HS then probed with anti HA-HRP (1:18000) for 1.33 hours at RT. Membrane was washed 3 times in TBS-T HS (15 mins) then once in TBS (15 mins) and exposed to ECL II and visualized using blue biofilm. […] When required, membranes were stripped in 100 mM glycine pH 4, 500 mM NaCl, 1% SDS, 5 mM BME, at 55° C. for 19 mins, then analyzed.
Lysates were prepared from HEK 293T cells expressing N-terminally HA-tagged ubiquitin (HA-Ub) to facilitate the observation of ubiquitinated proteins. In the absence of a DUB inhibitor, the HMW-Ub pool decomposed with a half-life of 34 min (FIG. 30A,B). […] Similar results were obtained in lysates prepared from Cos-1 cells expressing HA-Ub.

K562 cells = assay: accumulation of K48- and K63-linked Ub in K562 cells; type: cell-based, human; conditions: for accumulation of K48-linked HMW-Ub: 50 μM, 2 h
Experimental: FIG. 34 depicts data showing that diphenylcarbonates cause the accumulation of HMW-Ub and reduce the levels of Bcr-Abl in K562 cells. A. K562 cells were treated with diphenyl carbonates (50 μM) for 2 h and then assayed for the accumulation of K48-linked Ub. B. As in A, but Bcr-Abl was measured by immunoblotting with anti-Abl antibodies. C. K562 cells were treated with C17 (50 μM) in the presence and absence of bortezomib (6 μM) for 4 hours and Bcr-Abl was measured by immunblotting with anti-Abl antibodies. D. Quantitation of blot in C. Significance: DMSO relative to C17 and bortezomib p=0.002; DMSO relative to C17, p=0.03. E. K562 cells were treated with C15 for 4 hours then analyzed for SMAD4 monoubiquitination by western blot. F. Quantitation of blots in A. (N=3). See also FIG. 40.
FIG. 40 depicts data showing that diphenyl carbonates induce the degradation of Bcr-Abl kinase. A. K562 cells were treated with C17 for 24 h (1 dose) then analyzed for Bcr-Abl expression by western blot with anti-Abl antibody. B. Quantitation of blots in A normalized to actin. C. K562 cells were treated with C17 for 24 h then the amount of cells in G1 and apoptosis were recorded (N=3). D. K562 were treated with C15 for 4 h then analyzed for Bcr-Abl expression using western blot. E. Quantitation of Bcr-Abl from D normalized to tubulin (N=4). F. Same K562 lysates were separately analyzed for K63-linked ubiquitin. G. Quantitation of blots in F (N=4). Differences between all bars is significant p<0.01). H. K562 cells were treated with C15 for 24 h after which time cells were fixed in ethanol, treated with propodium iodide/RNAse then analyzed by FACS. Viability was calculated using forward and side scatter. I. Same experiment as H but red fluorescence was measured to determine DNA content
Transfected cells were harvested 1.5 days post transfection. […] Typically clarified lysate was analyzed.

SMILES | DUB inhibitory activity, SAR in words (DUBs) | accumulation of K48-linked HMW-Ub (K562 cells) | stabilization of the HMW-Ub pool (DUBs; HEK 293T HA-Ub lysates, 37° C.) | increase of inhibitory potency relative to C4 (factor) (DUBs) | accumulation of K63-linked ubiquitin (K562 cells; C15 4 h)
NCc1ccc(OC(=O)Oc2ccc3ccccc3c2)cc1 [Compound C17] | improved potency relative to C4 | caused the accumulation of K48-linked HMW-Ub in K562 cells | – | – | –
NCc1ccc(OC(=O)Oc2cccc3ccccc23)cc1 [Compound C18] | improved potency relative to C4 | caused the accumulation of K48-linked HMW-Ub in K562 cells | – | – | –
O=C1/C(=C/c2ccc([N+](=O)[O-])cc2)CS(=O)(=O)C/C1=C\c1ccc([N+](=O)[O-])cc1 [Compound G5, reference compound] | – | – | stabilized the HMW-Ub pool | – | –
NCc1ccc(OC(=O)Oc2ccc(Br)cc2)cc1 [Compound C15, 4-(aminomethyl)phenyl(4-bromophenyl)carbonate] | – | caused the accumulation of K48-linked HMW-Ub in K562 cells | – | approximately 10 | caused the accumulation of K63-linked ubiquitin
NCc1ccc(OC(=O)Oc2ccc(Cl)cc2)cc1 [Compound C14, 4-(aminomethyl)phenyl(4-chlorophenol)carbonate] | – | caused the accumulation of K48-linked HMW-Ub in K562 cells | – | approximately 10 | –
